We go through two molecules from patent US10435375B2, “CXCR4 chemokine receptor modulators” (NORTHWESTERN UNIVERSITY, priority 2015, dated 2019).

For one data set, the target named is T1, CXCR4-YFP (Homo sapiens, UniProt P61073).
T1 construct: expressed in transfected cells; host or cells: HEK293 cells
The data set is described as follows: Internalization of YFP-tagged CXCR4 receptors in HEK293 cells. In kind it is cell-based. The note with it: 2 hours, SDF-1 100 nM, NUCC-390 10 μM.

The next data set has as its system C8161 cells. The data set is described as follows: Chemotaxis of C8161 cells, Boyden chamber assay. It counts as cell-based, human. The note with it: SDF-1 100 nM, NUCC-390 10 μM, p<0.01, n=6. From the text: Chemokines are well known for their ability to stimulate chemotaxis of leukocytes and stem cells. In order to further establish the biological activity of the CXCR4 agonists, the ability of SDF-1 and NUCC-390 to produce chemotaxis of C8161 cells was compared using a Boyden chamber assay.

The subject of another data set is U937 cells. The data set is described as follows: Cell viability assay, U937 cells, with Ara-C. In kind it is cell-based. How it is done: FIG. 20. Cell viability assay with agonist NUCC-390 and known chemotherapeutics. The first bar is viability no NUCC-390 or Ara-C. Otherwise, the concentration of NUCC-390 was maintained at 50 μM in all experiments. U937 cells were treated with NUCC-390 and the indicated concentration of Ara-C.

Data set [1] concerns the target T2, CXCR4 (Homo sapiens, UniProt P61073). The data set is described as follows: Calcium imaging ((Ca)i mobilization) assay, fura-2, C8161 melanoma cells. To be noted: for compound's (Ca)i response in presence of CXCR4 antagonist AMD3100 / own (Ca)i response (agonist effect): C8161 cells; for compound's (Ca)i response in presence of CXCR4 antagonist AMD3100: AMD3100 1 μM where stated; for own (Ca)i response (agonist effect): compounds 10 μM where stated, SDF-1 100 nM; for Ca^2+ Assay: Table 1, calcium imaging behavior; for Pharmacology: Table 2, agonist or antagonist. More on the design: human melanoma cell line C8161 was initially used, which expresses numerous human CXCR4 receptors; endogenous in cells; host or cells: C8161 human melanoma cells. In kind it is cell-based. From the text: The initial assay for examining the activity of different molecules was based on the fact that activation of CXCR4 receptors produces an increase in the intracellular free Ca^2+ concentration (Ca)i. This signal can easily be observed using a fluorescent Ca^2+ sensing dye such as fura-2. The quantitative nature of this assay makes it ideal for screening purposes. Moreover, the assay can also distinguish potential antagonists from potential agonists. The aggressive human melanoma cell line C8161 was initially used, which expresses numerous human CXCR4 receptors and produces strong (Ca)I signals when stimulated with SDF-1 (FIG. 3). In the assay, cells were usually stimulated twice with SDF-1. […] To test a drug, the compound in question was usually added prior to the second stimulation with SDF-1. At this point it was possible to observe whether the compound itself acted as an agonist by giving its own response or if it reduced the magnitude of the second response to SDF-1. […] Each of the four antagonists were then assayed at multiple concentrations to obtain a dose-response relationship and an estimated IC50. Antagonists NUCC-388, 397, 392, and 51420 had IC50 values of 0.3 μM, 3 μM, 1 μM, and 1 μM respectively.

The target of data set [2] is T2, CXCR4. The data set is described as follows: ERK activation (pERK, Western blot) in C8161 cells. Set-up: human melanoma cell line C8161 was initially used, which expresses numerous human CXCR4 receptors; endogenous in cells; host or cells: C8161 human melanoma cells. It counts as cell-based. The note with it: SDF-1 100 nM, NUCC-390 10 μM, 30 min. The source says:
To further explore the agonist potential of compound NUCC-390, changes in signaling downstream of CXCR4 were examined. For these experiments, lysates were collected from treated C8161 cells and analyzed them using Western blot. […] That drug NUCC-390 has the capability of stimulating signaling activity downstream of CXCR4 receptors further supports the observation that NUCC-390 acts as a CXCR4 agonist.
For orientation: Immunoblotting shows a protein as a band on a membrane.

Another data set has as its system KT1 cells. The experiment in a line: Cell viability assay measuring colony forming units of KT1 cells, with imatinib. In kind it is cell-based. The note with it: combination with imatinib. The protocol: FIG. 21. Cell viability assay measuring colony forming units of KT1 cells. Cells were treated with kinase inhibitor imatinib, the indicated CXCR4 agent, or a combination, at the indicated concentrations.

The test system of data set [3] is cells from AML patient #2. The experiment in a line: Cell viability assay measuring colony forming units, cells from AML patient #2, with Ara-C. In kind it is cell-based. The note with it: AML patient #2 cells; combination with Ara-C. How it is done: FIG. 22. Cell viability assay measuring colony forming units of from AML patient #2. Cells were treated with cytotoxic agent Ara-C, the indicated CXCR4 agent, or a combination.

“Also recorded” adds a separate entry of the source.

T2 sequence (P61073 whole entry): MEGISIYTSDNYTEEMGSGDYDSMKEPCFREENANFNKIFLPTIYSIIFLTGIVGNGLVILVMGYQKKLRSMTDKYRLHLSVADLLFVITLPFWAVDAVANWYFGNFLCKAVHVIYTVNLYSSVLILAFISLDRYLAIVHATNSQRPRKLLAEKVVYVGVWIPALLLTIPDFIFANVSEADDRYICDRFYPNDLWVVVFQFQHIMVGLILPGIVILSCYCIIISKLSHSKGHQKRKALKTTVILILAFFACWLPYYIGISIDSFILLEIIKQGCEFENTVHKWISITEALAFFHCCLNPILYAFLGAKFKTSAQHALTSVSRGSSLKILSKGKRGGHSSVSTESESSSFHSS
T1 sequence (P61073 whole entry): as above

In the case of `CCCn1nc(C(=O)N2CCCCC2)c2c1CCC(NCCc1ccncc1)C2` (stereo not drawn) [NUCC-0000390, Piperidin-1-yl(1-propyl-5-((2-(pyridin-4-yl)ethyl)amino)-4,5,6,7-tetrahydro-1H-indazol-3-yl)methanone], the CXCR4-YFP receptor internalization entry on CXCR4-YFP is reported as “causes most of the CXCR4 receptor to become internalized”. Moreover, in the data set with C8161 cells, the chemotaxis entry is recorded as “matched by the effects of NUCC-390”. Besides, the “effect on cell viability, compound alone” value in the data set with U937 cells (NUCC-390 50 μM) is recorded as “only a modest effect by itself”. Moreover, in the data set with U937 cells (NUCC-390 50 μM plus Ara-C), the “effect on cytotoxicity of Ara-C in combination” value was “significantly increased the cytotoxicity of Ara-C”. Moreover, at CXCR4 [1] (listed as NUCC-390), the “compound's (Ca)i response in presence of CXCR4 antagonist AMD3100” value was “completely inhibited; also recorded: completely blocked by AMD3100” and the “own (Ca)i response (agonist effect)” value is listed as “produced their own response; also recorded: effects were similar to those produced by SDF-1; also recorded: strong (Ca)i response; also recorded: produced agonist effects”. Further, on CXCR4 [1], the “Ca^2+ Assay” value is on record as “Agonist” and the Pharmacology entry is “Agonist”. For the same molecule, at CXCR4 [2], the “level of phosphorylated ERK (pERK)” value is reported as “increased levels of pERK; also recorded: Increase in pERK”.

For `CCCn1nc(C(=O)N(C)C)c2c1CCC(NCc1ccc(F)cc1)C2` (stereo not drawn) [NUCC-0054121, 5-((4-Fluorobenzyl)amino)—N,N-dimethyl-1-propyl-4,5,6,7-tetrahydro-1H-indazole-3-carboxamide], in the data set with KT1 cells, the “effect on cell killing by imatinib (colony forming units)” value is “enhanced the cell killing ability of imatinib”. In data set [3], the “effect on cell killing by Ara-C (colony forming units)” value is reported as “enhanced the cell killing ability of Ara-C”. At CXCR4 [1], the “compound's (Ca)i response in presence of CXCR4 antagonist AMD3100” value is on record as “inhibited by AMD3100”, the “own (Ca)i response (agonist effect)” value is recorded as “robust agonist activity”, the “Ca^2+ Assay” value was “Agonist” and the Pharmacology result is recorded as “Agonist”.
